Results from patent US20240254117A1, “PYRIMIDO-HETEROCYCLIC COMPOUNDS, AND PREPARATION METHOD THEREFOR AND USE THEREOF” (SHANGHAI RINGENE BIOPHARMA CO., LTD., priority 2020, published 2024).

The molecules below were run on pERK (assay: p-ERK level in PC9 cells (AlphaLISA SureFire Ultra p-ERK1/2)). Settings: Homo sapiens, PC-9, 1 h, read-out: SOS1 pERK IC50.
Format: cell-based
Description: PC9 cells were seeded in 384-well cell culture plate (40 μL/well) according to a certain concentration and placed in a cell culture incubator with 37° C. and 5% CO2 overnight. On the next day, the plate was added with serially diluted test compounds (5 concentrations, 3-fold dilution, the highest concentration was 10 uM) for 1 hour, and then the lysate containing protease and phosphatase inhibitor was added to lyse the cells-extracted proteins, cellular pERK levels were measured using the AlphaLISASureFire Ultra p ERK1/2 assay kit (PerkinElmer). The standard AlphaLISA settings on the Envision plate reader (PerkinElmer) was used to read the signal. Raw data were analyzed in Excel (Microsoft) and Prism (GraphPad). The signal was plotted against the common logarithm of compound concentration and IC50 was calculated by fitting a four parameter non-linear regression curve.

SMILES | IC50 [nM]
COC1(c2cc3c(N[C@H](C)c4cc(N)cc(C(F)(F)F)c4)nc(C)nc3n3ccnc23)CC2CCC(C1)N2C (stereo partly shown) [Example 92] | < 1000
COC1(c2cc3c(N[C@H](C)c4cc(N)cc(C(F)(F)F)c4)nc(C)nc3n3ccnc23)CC2CCC(C1)N2C(=O)C(C)C (stereo partly shown) [Example 91] | < 1000
COC1(c2cc3c(N[C@H](C)c4cc(N)cc(C(F)(F)F)c4)nc(C)nc3n3ccnc23)CC2CCC(C1)N2C(C)C (stereo partly shown) [Example 93] | < 1000
CC(=O)N1CCC(O)(c2cc3c(N[C@H](C)c4cc(N)cc(C(F)(F)F)c4)nc(C)nc3n3ccnc23)CC1 [Example 85, (R)-1-(4-(4-((1-(3-amino-5-(trifluoromethyl)phenyl)ethyl)amino)-2-methylimidazole [1′,2′:1,6]pyrido [2,3-d]pyrimidin-6-yl)-4-hydroxypiperidin-1-yl) ethyl-1-one] | < 1000

Same assay, conditions: Homo sapiens, PC-9; PC9 cells, 1 hour compound treatment; read-out: SOS1 pERK IC50

SMILES | IC50 [nM]
COC1(c2cc3c(N[C@H](C)c4cccc(C(F)(F)F)c4C)nc(C)nc3n3ccnc23)CCN(C(C)C)CC1 [Example 81] | < 1000
COC1(c2cc3c(N[C@H](C)c4cc(N)cc(C(F)(F)F)c4)nc(C)nc3n3ccnc23)CCOCC1 [Example 75] | < 1000
Cc1nc(N[C@H](C)c2cc(N)cc(C(F)(F)F)c2)c2cc(C3(C#N)CCN(C(=O)C(C)C)CC3)c3nccn3c2n1 [Example 90] | < 1000
COC1(c2cc3c(N[C@H](C)c4cc(N)cc(C(F)(F)F)c4)nc(C)nc3n3ccnc23)CCS(=O)(=O)CC1 [Example 77] | < 1000
Cc1nc(N[C@H](C)c2cc(N)cc(C(F)(F)F)c2)c2cc(C3(C#N)CCS(=O)(=O)CC3)c3nccn3c2n1 [Example 78] | < 1000
COC1(c2cc3c(N[C@H](C)c4cccc(C(F)(F)F)c4C)nc(C)nc3n3ccnc23)CCOCC1 [Example 79] | < 1000
COC1(c2cc3c(N[C@H](C)c4cc(N)cc(C(F)(F)F)c4)nc(C)nc3n3ccnc23)CCN(C(C)=O)CC1 [Example 76] | < 1000
Cc1nc(N[C@H](C)c2cccc(C(F)(F)F)c2C)c2cc(C3(C#N)CCS(=O)(=O)CC3)c3nccn3c2n1 [Example 80] | < 1000
COC1(c2cc3c(N[C@H](C)c4cc(N)cc(C(F)(F)F)c4)nc(C)nc3n3ccnc23)CCN(C(=O)C(C)C)CC1 [Example 89] | < 1000
